Data set [1] deals with T1, Mitogen-activated protein kinase kinase kinase 12 (Homo sapiens, UniProt Q12852).
T1 sequence (Q12852 whole entry): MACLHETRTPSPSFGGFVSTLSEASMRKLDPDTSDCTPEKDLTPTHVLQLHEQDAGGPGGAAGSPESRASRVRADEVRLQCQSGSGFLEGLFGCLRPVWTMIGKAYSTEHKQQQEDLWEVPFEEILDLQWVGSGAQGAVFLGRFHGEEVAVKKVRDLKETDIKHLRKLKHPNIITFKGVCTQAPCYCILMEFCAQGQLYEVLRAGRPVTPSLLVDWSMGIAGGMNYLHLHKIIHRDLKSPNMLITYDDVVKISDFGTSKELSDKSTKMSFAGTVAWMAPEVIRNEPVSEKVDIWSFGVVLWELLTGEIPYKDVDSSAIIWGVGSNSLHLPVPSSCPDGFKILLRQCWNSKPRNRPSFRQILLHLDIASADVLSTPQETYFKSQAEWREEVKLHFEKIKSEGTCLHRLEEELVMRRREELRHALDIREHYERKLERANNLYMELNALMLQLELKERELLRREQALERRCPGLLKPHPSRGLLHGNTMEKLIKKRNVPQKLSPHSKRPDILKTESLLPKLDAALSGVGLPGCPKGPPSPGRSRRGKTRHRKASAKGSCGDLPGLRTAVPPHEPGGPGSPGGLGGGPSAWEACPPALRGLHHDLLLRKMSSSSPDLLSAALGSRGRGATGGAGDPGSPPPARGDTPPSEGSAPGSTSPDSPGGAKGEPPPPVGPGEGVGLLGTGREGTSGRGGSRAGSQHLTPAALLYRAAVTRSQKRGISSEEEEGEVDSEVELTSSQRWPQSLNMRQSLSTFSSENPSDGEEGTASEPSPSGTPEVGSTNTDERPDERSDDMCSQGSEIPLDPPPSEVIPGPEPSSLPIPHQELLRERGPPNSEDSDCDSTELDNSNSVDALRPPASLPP
As to the kind of experiment: Inhibition of N-terminally GST- tagged human DLK catalytic domain (1 to 520 amino acids) using N-terminally HIS-tagged MKK4 K131M as substrate incubated for 60 mins by TR-FRET assay. In general terms: Time-resolved FRET reads energy transfer from a long-lived donor to a nearby acceptor.

In data set [2] the test system is human MDR1. As to the kind of experiment: Efflux ratio of permeability across basolateral to apical over apical to basolateral side in MDCK cells transfected with human MDR1 at 5 uM by LC-MS/MS analysis. The following applies: dog.
Data set [3] concerns the target T1, Mitogen-activated protein kinase kinase kinase 12. Briefly: Inhibition of Dox inducible human DLK transfected in HEK293 cells assessed as reduction in JNK phosphorylation incubated for 5.5 hrs measured by Hoechst 33342 staining based imaging analysis. Type of data set: cell-based.
The subject of data set [4] is human MDR1. As to the kind of experiment: Permeability across apical to basolateral side in MDCK cells transfected with human MDR1 at 5 uM by LC-MS/MS analysis. The following applies: dog.

By Ki is commonly meant the dissociation constant of the complex between target and ligand, obtained from inhibition or displacement. In the case of `N#Cc1ccnc(Nc2cn(C3CCN(C4COC4)CC3)c(C3CCCC3)n2)c1`, the inhibition constant (Ki) in data set [1] is more than 1600 nM.

As usually defined, the efflux ratio is the permeability from basolateral to apical divided by that in the opposite direction, in the common usage. As usually defined, the IC50 is the concentration at which inhibition is half-maximal. What is called Papp A→B is the apparent permeability from the apical to the basolateral side of a cell layer. For `N#Cc1ccnc(Nc2cc(C3CCOC3)n(C3CCCC3)n2)c1` (racemic), the efflux ratio at 5 µM in data set [2] came out at 1. Moreover, in data set [3], the IC50 stood at 698 nM. In addition, the Ki in data set [1] stood at 54 nM. In data set [4], this compound gave a Papp A→B at 5 µM of 2.7 ×10⁻⁶ cm/s.

Consider `N#Cc1ccnc(Nc2cc(C3CCN(C4COC4)C3)n(C3CCCC3)n2)c1` (racemic), for which, in data set [2], the efflux ratio at 5 µM is 3.7. In addition, in data set [3], the IC50 came out at 632 nM. In data set [1], this compound registered a Ki of 25 nM. In data set [4], this compound came in with a Papp A→B at 5 µM of 5.6 ×10⁻⁶ cm/s.

Regarding `N#Cc1ccnc(Nc2cc(C3CCN(C4COC4)CC3)n(CC3CCC3)n2)c1`, in data set [3], the half-inhibitory concentration (IC50) was 1400 nM. This compound also showed a Ki in data set [1] of 133 nM. Besides, in data set [4], the Papp A→B at 5 µM was 1.8 ×10⁻⁶ cm/s.

`N#Cc1ccnc(Nc2nc(C3CC3)c(C3CCN(C4COC4)CC3)s2)c1`: the IC50 in data set [3] was 8600 nM. The compound further displayed a Ki in data set [1] of 569 nM.

On to `N#Cc1ccnc(Nc2cc(C3CCN(C4COC4)CC3)n(C3CCOCC3)n2)c1`, for which the efflux ratio at 5 µM in data set [2] is 15. Besides, in data set [1], the Ki turned out to be 593 nM. This compound yielded a Papp A→B at 5 µM in data set [4] of 1.7 ×10⁻⁶ cm/s.

Consider `CC(C)n1nc(Nc2cc(C(F)(F)F)ccn2)cc1C1CCNCC1`, for which the efflux ratio at 5 µM in data set [2] worked out at 36. The affinity in data set [1] corresponds to a Ki of 145 nM. Further, the Papp A→B at 5 µM in data set [4] amounted to 0.5 ×10⁻⁶ cm/s.

For `N#Cc1ccnc(Nc2cc(C3CCN(C4COC4)CC3)n(C3CCOC3)n2)c1` (racemic), the efflux ratio at 5 µM in data set [2] amounted to 7.6. The compound further gave an inhibitory constant (Ki) in data set [1] of 378 nM. In addition, the apparent permeability from apical to basolateral (Papp A→B) at 5 µM in data set [4] turned out to be 1.9 ×10⁻⁶ cm/s.

The compound `CC(C)n1nc(Nc2cc(C#N)ccn2)cc1C1CCNCC1` came in with an inhibitory constant (Ki) in data set [1] of 160 nM.

With `CC(C)n1nc(Nc2ccc(C(F)(F)F)cn2)cc1C1CCNCC1`, the Ki in data set [1] is more than 1600 nM.

In data set [1], `CC(C)n1nc(Nc2ccc(C#N)cn2)cc1C1CCNCC1` yielded a Ki of more than 1600 nM.

`N#Cc1ccnc(Nc2cc(C3CN(C4COC4)C3)n(C3CCCC3)n2)c1`: the efflux ratio at 5 µM in data set [2] came to 3.3. Further, the IC50 in data set [3] is 459 nM. In addition, the affinity in data set [1] corresponds to a Ki of 48 nM. This compound had a Papp A→B at 5 µM in data set [4] of 4.9 ×10⁻⁶ cm/s.

Regarding `N#Cc1ccnc(Nc2cc(C3CCN(C4COC4)CC3)n(C3CCC(F)(F)C3)n2)c1` (racemic), the efflux ratio at 5 µM in data set [2] came out at 5.8. The IC50 in data set [3] amounted to 721 nM. Besides, the Ki in data set [1] was 48 nM. The Papp A→B at 5 µM in data set [4] came out at 4.2 ×10⁻⁶ cm/s.

The record behind these values is ChEMBL document CHEMBL3627690, “Scaffold-Hopping and Structure-Based Discovery of Potent, Selective, And Brain Penetrant N-(1H-Pyrazol-3-yl)pyridin-2-amine Inhibitors of Dual Leucine Zipper Kinase (DLK, MAP3K12)” (J Med Chem, 2015).
